In article PMC5564600 (Oncotarget, 2017):

What was measured:
Test in all cases: biochemical
Assay type in all cases: binding
panel of 442 kinases [1] = target: T1, panel of 442 kinases (Homo sapiens, UniProt P78356); settings: kinase PIP5K2B; for remaining activity at 1 µM: read-out: % of control at 1 µM
T1 construct: purchased Ambit Biosciences (scanMAXX KINOMEscan)
T1 sequence (P78356 1-416): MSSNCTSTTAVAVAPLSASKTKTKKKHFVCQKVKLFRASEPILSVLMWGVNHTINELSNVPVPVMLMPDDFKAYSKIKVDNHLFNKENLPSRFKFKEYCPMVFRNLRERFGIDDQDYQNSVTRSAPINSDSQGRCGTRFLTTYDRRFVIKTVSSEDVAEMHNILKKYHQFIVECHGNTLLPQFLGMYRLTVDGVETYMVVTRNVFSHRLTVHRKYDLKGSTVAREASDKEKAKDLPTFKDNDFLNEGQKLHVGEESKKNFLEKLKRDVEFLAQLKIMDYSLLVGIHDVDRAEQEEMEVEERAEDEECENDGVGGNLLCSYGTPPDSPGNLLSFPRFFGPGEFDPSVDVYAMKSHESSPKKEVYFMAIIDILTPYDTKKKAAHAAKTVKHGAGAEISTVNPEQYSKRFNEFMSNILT

panel of 442 kinases [2] = target: T2, panel of 442 kinases (Homo sapiens, UniProt Q15208); settings: kinase NDR1; for remaining activity at 1 µM: read-out: % of control at 1 µM
T2 construct: purchased Ambit Biosciences (scanMAXX KINOMEscan)

panel of 442 kinases [3] = target: T3, panel of 442 kinases (Homo sapiens, UniProt Q8NE63); settings: kinase HIPK4; for remaining activity at 1 µM: read-out: % of control at 1 µM
T3 construct: purchased Ambit Biosciences (scanMAXX KINOMEscan)
T3 sequence (Q8NE63 1-616): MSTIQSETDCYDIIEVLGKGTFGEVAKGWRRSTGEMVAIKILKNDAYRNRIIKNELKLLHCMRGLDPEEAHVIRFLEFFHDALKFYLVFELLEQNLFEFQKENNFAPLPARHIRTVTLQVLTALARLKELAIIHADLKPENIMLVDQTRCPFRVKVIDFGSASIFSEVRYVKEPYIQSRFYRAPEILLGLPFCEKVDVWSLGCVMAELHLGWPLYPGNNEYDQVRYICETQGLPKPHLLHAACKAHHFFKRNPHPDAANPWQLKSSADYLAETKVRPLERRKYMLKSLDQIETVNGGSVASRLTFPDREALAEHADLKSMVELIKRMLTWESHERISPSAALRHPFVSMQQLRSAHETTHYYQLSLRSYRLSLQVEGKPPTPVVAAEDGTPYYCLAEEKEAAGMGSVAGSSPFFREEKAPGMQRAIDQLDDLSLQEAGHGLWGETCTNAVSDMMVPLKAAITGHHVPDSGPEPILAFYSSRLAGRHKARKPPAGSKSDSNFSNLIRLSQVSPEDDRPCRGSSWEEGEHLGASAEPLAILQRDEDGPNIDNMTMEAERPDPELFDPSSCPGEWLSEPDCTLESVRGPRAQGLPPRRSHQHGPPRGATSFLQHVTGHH

panel of 442 kinases [4] = target: T4, panel of 442 kinases (Homo sapiens, UniProt P28482); settings: ERK2; for remaining activity at 1 µM: read-out: % of control at 1 µM
T4 construct: purchased Ambit Biosciences (scanMAXX KINOMEscan)

panel of 442 kinases [5] = target: T5, panel of 442 kinases (Homo sapiens, UniProt P49761); settings: CLK3; for remaining activity at 1 µM: read-out: % of control at 1 µM
T5 construct: purchased Ambit Biosciences (scanMAXX KINOMEscan)

panel of 442 kinases [6] = target: T6, panel of 442 kinases (Homo sapiens, UniProt P29320); settings: EPHA3; for remaining activity at 1 µM: read-out: % of control at 1 µM
T6 construct: purchased Ambit Biosciences (scanMAXX KINOMEscan)
T6 sequence (P29320 21-983): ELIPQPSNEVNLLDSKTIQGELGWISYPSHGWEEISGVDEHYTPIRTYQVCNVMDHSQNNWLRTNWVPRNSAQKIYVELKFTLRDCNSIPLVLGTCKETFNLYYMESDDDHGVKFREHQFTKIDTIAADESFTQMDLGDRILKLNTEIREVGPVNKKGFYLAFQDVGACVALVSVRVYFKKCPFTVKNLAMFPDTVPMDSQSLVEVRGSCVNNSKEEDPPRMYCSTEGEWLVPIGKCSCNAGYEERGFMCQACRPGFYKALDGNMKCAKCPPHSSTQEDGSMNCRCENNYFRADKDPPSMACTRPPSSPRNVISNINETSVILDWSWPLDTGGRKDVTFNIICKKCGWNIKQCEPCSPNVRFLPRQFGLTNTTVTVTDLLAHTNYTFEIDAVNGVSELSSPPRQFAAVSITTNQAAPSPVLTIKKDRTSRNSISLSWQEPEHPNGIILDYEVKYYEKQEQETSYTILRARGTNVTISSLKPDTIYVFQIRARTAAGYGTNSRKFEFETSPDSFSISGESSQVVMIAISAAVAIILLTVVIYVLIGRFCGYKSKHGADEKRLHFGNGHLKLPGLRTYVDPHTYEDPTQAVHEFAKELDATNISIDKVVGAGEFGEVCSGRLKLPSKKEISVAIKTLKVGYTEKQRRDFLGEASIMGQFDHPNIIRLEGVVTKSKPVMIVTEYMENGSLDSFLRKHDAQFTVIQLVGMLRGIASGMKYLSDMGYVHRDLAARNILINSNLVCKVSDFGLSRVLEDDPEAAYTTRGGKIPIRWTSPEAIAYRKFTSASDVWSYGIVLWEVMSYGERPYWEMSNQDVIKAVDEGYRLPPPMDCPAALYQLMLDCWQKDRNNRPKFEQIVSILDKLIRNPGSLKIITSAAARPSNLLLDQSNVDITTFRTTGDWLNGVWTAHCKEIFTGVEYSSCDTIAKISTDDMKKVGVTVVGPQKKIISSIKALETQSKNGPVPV

panel of 442 kinases [7] = target: T7, panel of 442 kinases (Homo sapiens, UniProt P49840); settings: kinase GSK3A; for remaining activity at 1 µM: read-out: % of control at 1 µM
T7 construct: purchased Ambit Biosciences (scanMAXX KINOMEscan)

[8] = 10 µM, read-out: % of control at 10 µM

T7 sequence (P49840 whole entry): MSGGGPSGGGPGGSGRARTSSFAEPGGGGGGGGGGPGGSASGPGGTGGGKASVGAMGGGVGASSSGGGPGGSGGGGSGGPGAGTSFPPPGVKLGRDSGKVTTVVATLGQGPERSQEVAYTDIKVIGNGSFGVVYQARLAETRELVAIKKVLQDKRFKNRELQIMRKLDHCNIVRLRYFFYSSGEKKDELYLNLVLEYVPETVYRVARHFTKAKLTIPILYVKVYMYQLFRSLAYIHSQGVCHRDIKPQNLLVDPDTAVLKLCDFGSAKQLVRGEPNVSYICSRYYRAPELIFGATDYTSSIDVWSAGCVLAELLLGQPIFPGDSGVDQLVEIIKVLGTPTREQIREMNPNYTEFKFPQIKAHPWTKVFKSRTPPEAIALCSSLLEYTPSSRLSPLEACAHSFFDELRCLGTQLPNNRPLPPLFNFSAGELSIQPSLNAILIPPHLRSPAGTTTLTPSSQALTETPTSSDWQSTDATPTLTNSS
T5 sequence (P49761 whole entry): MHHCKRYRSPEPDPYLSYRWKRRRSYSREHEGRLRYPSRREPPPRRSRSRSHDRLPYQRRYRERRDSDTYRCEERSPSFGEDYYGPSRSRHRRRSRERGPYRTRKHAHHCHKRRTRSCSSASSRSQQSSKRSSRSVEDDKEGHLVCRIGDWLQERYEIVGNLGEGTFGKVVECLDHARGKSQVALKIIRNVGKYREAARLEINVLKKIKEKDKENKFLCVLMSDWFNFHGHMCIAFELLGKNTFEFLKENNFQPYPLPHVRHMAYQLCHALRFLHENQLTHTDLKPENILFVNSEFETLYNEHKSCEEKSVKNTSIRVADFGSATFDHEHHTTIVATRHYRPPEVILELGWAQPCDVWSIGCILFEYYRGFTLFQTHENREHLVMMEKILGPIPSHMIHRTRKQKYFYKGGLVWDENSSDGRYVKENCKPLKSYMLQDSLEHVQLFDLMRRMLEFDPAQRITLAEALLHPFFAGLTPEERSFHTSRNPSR
T4 sequence (P28482 whole entry): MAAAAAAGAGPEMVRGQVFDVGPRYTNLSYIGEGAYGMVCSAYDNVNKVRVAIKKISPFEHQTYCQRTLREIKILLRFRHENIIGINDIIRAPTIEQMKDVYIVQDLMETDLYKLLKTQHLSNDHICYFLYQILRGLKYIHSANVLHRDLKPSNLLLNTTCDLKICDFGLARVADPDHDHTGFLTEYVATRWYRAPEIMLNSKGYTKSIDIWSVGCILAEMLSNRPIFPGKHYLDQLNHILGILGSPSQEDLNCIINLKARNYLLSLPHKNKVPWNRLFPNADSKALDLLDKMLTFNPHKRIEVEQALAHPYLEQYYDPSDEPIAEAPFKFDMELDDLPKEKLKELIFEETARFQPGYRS
T2 sequence (Q15208 whole entry): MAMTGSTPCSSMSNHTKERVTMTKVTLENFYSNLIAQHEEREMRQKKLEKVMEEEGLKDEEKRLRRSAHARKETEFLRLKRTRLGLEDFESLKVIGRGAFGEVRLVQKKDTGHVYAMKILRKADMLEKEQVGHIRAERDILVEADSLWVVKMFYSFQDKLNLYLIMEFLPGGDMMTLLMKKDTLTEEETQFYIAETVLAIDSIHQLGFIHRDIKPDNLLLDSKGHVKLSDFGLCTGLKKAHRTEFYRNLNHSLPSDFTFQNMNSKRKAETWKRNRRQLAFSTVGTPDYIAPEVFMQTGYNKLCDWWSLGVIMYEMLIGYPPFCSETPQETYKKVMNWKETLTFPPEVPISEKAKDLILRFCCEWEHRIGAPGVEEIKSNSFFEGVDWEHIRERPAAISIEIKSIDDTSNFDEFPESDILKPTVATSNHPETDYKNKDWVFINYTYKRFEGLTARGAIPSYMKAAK

SMILES	remaining activity at 1 µM (panel of 442 kinases [1])	remaining activity at 10 µM (panel of 442 kinases [1]; [8])	remaining activity at 1 µM (panel of 442 kinases [2])	remaining activity at 10 µM (panel of 442 kinases [2]; [8])	remaining activity at 1 µM (panel of 442 kinases [3])	remaining activity at 10 µM (panel of 442 kinases [3]; [8])	remaining activity at 1 µM (panel of 442 kinases [4])	remaining activity at 10 µM (panel of 442 kinases [4]; [8])	remaining activity at 1 µM (panel of 442 kinases [5])	remaining activity at 10 µM (panel of 442 kinases [5]; [8])	remaining activity at 1 µM (panel of 442 kinases [6])	remaining activity at 10 µM (panel of 442 kinases [6]; [8])	remaining activity at 1 µM (panel of 442 kinases [7])	remaining activity at 10 µM (panel of 442 kinases [7]; [8])
Nc1cc(C(F)(F)F)c(-c2cc(N3CCOCC3)nc(N3CCOCC3)n2)cn1 [Buparlisib]	84%	100%	100%	100%	97%	100%	100%	78%	100%	94%	96%	100%	93%	100%
Cn1c(=O)n(-c2ccc(C(C)(C)C#N)cc2)c2c3cc(-c4cnc5ccccc5c4)ccc3ncc21 [Dactolisib, 2-methyl-2-[4-(3-methyl-2-oxo-8-quinolin-3-yl-2,3-dihydroimidazo[4,5-c]quinolin-1-yl)-phenyl] propionitrile]	100%	–	100%	–	87%	–	88%	–	50%	–	63%	–	–	–
COc1ncc(-c2ccc3nccc(-c4ccnnc4)c3c2)cc1NS(=O)(=O)c1ccc(F)cc1F [Omipalisib]	100%	–	100%	–	98%	–	100%	–	93%	–	100%	–	100%	–
FC(F)c1nc2ccccc2n1-c1nc(N2CCOCC2)nc(N2CCOCC2)n1 [ZSTK474, 2-(difluoromethyl)-1-[4,6-di(4-morpholinyl)-1,3,5-triazin-2-yl]-1H-benzimidazole]	100%	–	95%	–	77%	–	100%	–	100%	–	93%	–	100%	–
